Measured values: patent US11166930B2, “Isotopically modified components and therapeutic uses thereof” (RETROTOPE, INC., priority 2016, dated 2021)

Columns and labels:
Aldh2−/− mice = Aldh2−/− mice as well as APP/PS1 and 3×Tg transgenic mice; cited from earlier work
COX1 = COX1 (Homo sapiens, UniProt P23219); settings: compared with other types of deuterated arachidonic acid; unmodified arachidonic acid as control
Method: The effect of a high level of isotopically modified polyunsaturated lipid (e.g. arachidonic acids having deuterium at bis-allylic sites) on the enzymatic activity of cyclooxygenase (COX) was examined in vitro. The COX1 activity was measured by oxygen consumption (Clark electrode) in vitro. […] Arachidonic acid with no deuterium modification was used as a control.

Sequence of COX1 (P23219 24-599): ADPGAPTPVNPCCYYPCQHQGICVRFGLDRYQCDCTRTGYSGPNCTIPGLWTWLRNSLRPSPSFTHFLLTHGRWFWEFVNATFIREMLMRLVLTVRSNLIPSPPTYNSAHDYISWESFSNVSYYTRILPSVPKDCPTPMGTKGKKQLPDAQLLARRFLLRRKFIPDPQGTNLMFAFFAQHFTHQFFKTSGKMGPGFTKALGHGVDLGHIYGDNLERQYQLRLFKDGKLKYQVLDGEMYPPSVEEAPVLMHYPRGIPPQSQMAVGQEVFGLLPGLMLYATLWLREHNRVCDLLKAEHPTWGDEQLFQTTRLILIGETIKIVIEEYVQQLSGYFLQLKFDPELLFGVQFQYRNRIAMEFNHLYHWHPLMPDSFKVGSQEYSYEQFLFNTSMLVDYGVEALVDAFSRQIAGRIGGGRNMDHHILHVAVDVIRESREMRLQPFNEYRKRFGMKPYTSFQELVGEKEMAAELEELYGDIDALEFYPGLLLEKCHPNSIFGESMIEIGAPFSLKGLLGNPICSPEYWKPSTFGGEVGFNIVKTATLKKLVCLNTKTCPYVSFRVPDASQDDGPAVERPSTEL

Which memory (Aldh2−/− mice) does the source give for `Cc1ncsc1CCO[N+](=O)[O-].Cl` [NMZ, 4-methyl-5-(2-(nitrooxy)ethyl)thiazol-3-ium chloride] here?
Its memory is “memory can be improved”.

For `[2H]C([2H])(/C=C\C/C=C\C/C=C\CCCC(=O)O)/C=C\CCCCC` [13,13-D2-arachidonic acid], which “reduction of COX1 activity” value (COX1) is on record?
Its value is “most effective in reducing the activity of COX1”.
